Test results from patent US10167262B2, “Herbicidal substituted 3-arylpyrazoles” (FMC CORPORATION, priority 2014, dated 2019).

How the values were obtained:
Assay in all cases: Test D postemergence controlled growth environment test, plant response rating 0-100
Assay type in all cases: in vivo
[1] = tested on: Italian ryegrass (Lolium multiflorum)
Description: (§1) Seeds of plant species selected from bluegrass (annual bluegrass, Poa annua), blackgrass (Alopecurus myosuroides), canarygrass (Phalaris minor), chickweed (common chickweed, Stellaria media), galium (catchweed bedstraw, Galium aparine), downy bromegrass (Bromus tectorum), field violet (Viola arvensis), green foxtail (Setaria viridis), deadnettle (henbit deadnettle, Lamium amplexicaule), Italian ryegrass (Lolium multiflorum), kochia (Kochia scoparia), lambsquarters (Chenopodium album), oilseed rape (Brassica napus), pigweed (Amaranthus retroflexus), Russian thistle (Salsola kali), spring barley (Hordeum vulgare), spring wheat (Triticum aestivum), wild buckwheat (Polygonum convolvulus), wild mustard (Sinapis arvensis), wild oat (Avena fatua), windgrass (Apera spica-venti), winter barley (Hordeum vulgare), and winter wheat (Triticum aestivum) were planted in pots containing Redi-Earth® planting medium (Scotts Company, 14111 Scottslawn Road, Marysville, Ohio 43041) comprising spaghnum peat moss, vermiculite, wetting agent and starter nutrients and treated with postemergence applications of test chemicals formulated in a non-phytotoxic solvent mixture which included a surfactant. Plants ranged in height from 2 to 18 cm (1- to 4-leaf stage). Treated plants and controls were maintained in a controlled growth environment for 14 days after which time all species were compared to controls and visually evaluated. Plant response ratings, summarized in Table D, are based on a scale of 0 to 100 where 0 is no effect and 100 is complete control. A dash (-) response means no test result.

[2] = tested on: Russian thistle (Salsola kali)
Description: as §1

[3] = tested on: blackgrass (Alopecurus myosuroides)
Description: as §1

[4] = tested on: bluegrass (annual bluegrass, Poa annua)
Description: as §1

[5] = tested on: canarygrass (Phalaris minor)
Description: as §1

[6] = tested on: chickweed (common chickweed, Stellaria media)
Description: as §1

[7] = tested on: deadnettle (henbit deadnettle, Lamium amplexicaule)
Description: as §1

[8] = tested on: downy bromegrass (Bromus tectorum)
Description: as §1

[9] = tested on: field violet (Viola arvensis)
Description: as §1

[10] = tested on: galium (catchweed bedstraw, Galium aparine)
Description: as §1

[11] = tested on: green foxtail (Setaria viridis)
Description: as §1

kochia (Kochia scoparia) = tested on: kochia (Kochia scoparia)
Description: as §1

[12] = tested on: oilseed rape (Brassica napus)
Description: as §1

[13] = tested on: pigweed (Amaranthus retroflexus)
Description: as §1

[14] = tested on: spring barley (Hordeum vulgare)
Description: as §1

[15] = tested on: spring wheat (Triticum aestivum)
Description: as §1

[16] = tested on: wild mustard (Sinapis arvensis)
Description: as §1

wild oat (Avena fatua) = tested on: wild oat (Avena fatua)
Description: as §1

[17] = tested on: windgrass (Apera spica-venti)
Description: as §1

[18] = tested on: winter barley (Hordeum vulgare)
Description: as §1

Structure (SMILES): Clc1cc(Cl)cc(-c2n[nH]cc2C(=NN2CCCC2)c2ccccc2)c1 [Compound 30, N-[[3-(3,5-dichlorophenyl)-1H-pyrazol-4-yl]phenylmethylene]-1-pyrrolidinamine]
- Plant response rating, Ryegrass, Italian ([1]; 16 g ai/ha): 0
- Plant response rating, Ryegrass, Italian ([1]; 31 g ai/ha): 0
- Plant response rating, Ryegrass, Italian ([1]; 62 g ai/ha): 0
- Plant response rating, Ryegrass, Italian ([1]; 125 g ai/ha): 0
- Plant response rating, Ryegrass, Italian ([1]; 250 g ai/ha): 10
- Plant response rating, Russian Thistle ([2]; 16 g ai/ha): 0
- Plant response rating, Russian Thistle ([2]; 31 g ai/ha): 10
- Plant response rating, Russian Thistle ([2]; 62 g ai/ha): 20
- Plant response rating, Russian Thistle ([2]; 125 g ai/ha): 40
- Plant response rating, Russian Thistle ([2]; 250 g ai/ha): 50
- Plant response rating, Blackgrass ([3]; 16 g ai/ha): 0
- Plant response rating, Blackgrass ([3]; 31 g ai/ha): 0
- Plant response rating, Blackgrass ([3]; 62 g ai/ha): 0
- Plant response rating, Blackgrass ([3]; 125 g ai/ha): 10
- Plant response rating, Blackgrass ([3]; 250 g ai/ha): 10
- Plant response rating, Bluegrass ([4]; 16 g ai/ha): 0
- Plant response rating, Bluegrass ([4]; 31 g ai/ha): 0
- Plant response rating, Bluegrass ([4]; 62 g ai/ha): 0
- Plant response rating, Bluegrass ([4]; 125 g ai/ha): 0
- Plant response rating, Bluegrass ([4]; 250 g ai/ha): 0
- Plant response rating, Canarygrass ([5]; 16 g ai/ha): 0
- Plant response rating, Canarygrass ([5]; 31 g ai/ha): 0
- Plant response rating, Canarygrass ([5]; 62 g ai/ha): 0
- Plant response rating, Canarygrass ([5]; 125 g ai/ha): 0
- Plant response rating, Canarygrass ([5]; 250 g ai/ha): 10
- Plant response rating, Chickweed ([6]; 16 g ai/ha): 0
- Plant response rating, Chickweed ([6]; 31 g ai/ha): 0
- Plant response rating, Chickweed ([6]; 62 g ai/ha): 10
- Plant response rating, Chickweed ([6]; 125 g ai/ha): 40
- Plant response rating, Chickweed ([6]; 250 g ai/ha): 75
- Plant response rating, Deadnettle ([7]; 16 g ai/ha): 0
- Plant response rating, Deadnettle ([7]; 31 g ai/ha): 0
- Plant response rating, Deadnettle ([7]; 62 g ai/ha): 0
- Plant response rating, Deadnettle ([7]; 125 g ai/ha): 10
- Plant response rating, Deadnettle ([7]; 250 g ai/ha): 10
- Plant response rating, Bromegrass, Downy ([8]; 16 g ai/ha): 0
- Plant response rating, Bromegrass, Downy ([8]; 31 g ai/ha): 0
- Plant response rating, Bromegrass, Downy ([8]; 62 g ai/ha): 0
- Plant response rating, Bromegrass, Downy ([8]; 125 g ai/ha): 0
- Plant response rating, Bromegrass, Downy ([8]; 250 g ai/ha): 0
- Plant response rating, Field Violet ([9]; 16 g ai/ha): 0
- Plant response rating, Field Violet ([9]; 31 g ai/ha): 0
- Plant response rating, Field Violet ([9]; 62 g ai/ha): 10
- Plant response rating, Field Violet ([9]; 125 g ai/ha): 10
- Plant response rating, Field Violet ([9]; 250 g ai/ha): 15
- Plant response rating, Galium ([10]; 16 g ai/ha): 0
- Plant response rating, Galium ([10]; 31 g ai/ha): 0
- Plant response rating, Galium ([10]; 62 g ai/ha): 0
- Plant response rating, Galium ([10]; 125 g ai/ha): 0
- Plant response rating, Galium ([10]; 250 g ai/ha): 0
- Plant response rating, Foxtail, Green ([11]; 16 g ai/ha): 0
- Plant response rating, Foxtail, Green ([11]; 31 g ai/ha): 0
- Plant response rating, Foxtail, Green ([11]; 62 g ai/ha): 0
- Plant response rating, Foxtail, Green ([11]; 125 g ai/ha): 0
- Plant response rating, Foxtail, Green ([11]; 250 g ai/ha): 0
- Plant response rating, Kochia (kochia (Kochia scoparia); 16 g ai/ha): 0
- Plant response rating, Kochia (kochia (Kochia scoparia); 31 g ai/ha): 10
- Plant response rating, Kochia (kochia (Kochia scoparia); 62 g ai/ha): 30
- Plant response rating, Kochia (kochia (Kochia scoparia); 125 g ai/ha): 40
- Plant response rating, Kochia (kochia (Kochia scoparia); 250 g ai/ha): 70
- Plant response rating, Oilseed Rape ([12]; 16 g ai/ha): 30
- Plant response rating, Oilseed Rape ([12]; 31 g ai/ha): 50
- Plant response rating, Oilseed Rape ([12]; 62 g ai/ha): 60
- Plant response rating, Oilseed Rape ([12]; 125 g ai/ha): 85
- Plant response rating, Oilseed Rape ([12]; 250 g ai/ha): 0
- Plant response rating, Pigweed ([13]; 16 g ai/ha): 25
- Plant response rating, Pigweed ([13]; 31 g ai/ha): 60
- Plant response rating, Pigweed ([13]; 62 g ai/ha): 70
- Plant response rating, Pigweed ([13]; 125 g ai/ha): 80
- Plant response rating, Pigweed ([13]; 250 g ai/ha): 90
- Plant response rating, Barley, Spring ([14]; 16 g ai/ha): 0
- Plant response rating, Barley, Spring ([14]; 31 g ai/ha): 0
- Plant response rating, Barley, Spring ([14]; 62 g ai/ha): 0
- Plant response rating, Barley, Spring ([14]; 125 g ai/ha): 0
- Plant response rating, Barley, Spring ([14]; 250 g ai/ha): 0
- Plant response rating, Wheat, Spring ([15]; 16 g ai/ha): 0
- Plant response rating, Wheat, Spring ([15]; 31 g ai/ha): 0
- Plant response rating, Wheat, Spring ([15]; 62 g ai/ha): 0
- Plant response rating, Wheat, Spring ([15]; 125 g ai/ha): 0
- Plant response rating, Wheat, Spring ([15]; 250 g ai/ha): 0
- Plant response rating, Mustard, Wild ([16]; 16 g ai/ha): 60
- Plant response rating, Mustard, Wild ([16]; 31 g ai/ha): 60
- Plant response rating, Mustard, Wild ([16]; 62 g ai/ha): 60
- Plant response rating, Mustard, Wild ([16]; 125 g ai/ha): 70
- Plant response rating, Mustard, Wild ([16]; 250 g ai/ha): 85
- Plant response rating, Oat, Wild (wild oat (Avena fatua); 16 g ai/ha): 0
- Plant response rating, Oat, Wild (wild oat (Avena fatua); 31 g ai/ha): 0
- Plant response rating, Oat, Wild (wild oat (Avena fatua); 62 g ai/ha): 0
- Plant response rating, Oat, Wild (wild oat (Avena fatua); 125 g ai/ha): 0
- Plant response rating, Oat, Wild (wild oat (Avena fatua); 250 g ai/ha): 0
- Plant response rating, Windgrass ([17]; 16 g ai/ha): 0
- Plant response rating, Windgrass ([17]; 31 g ai/ha): 0
- Plant response rating, Windgrass ([17]; 62 g ai/ha): 0
- Plant response rating, Windgrass ([17]; 125 g ai/ha): 0
- Plant response rating, Windgrass ([17]; 250 g ai/ha): 0
- Plant response rating, Barley, Winter ([18]; 16 g ai/ha): 0
- Plant response rating, Barley, Winter ([18]; 31 g ai/ha): 0
- Plant response rating, Barley, Winter ([18]; 62 g ai/ha): 0
- Plant response rating, Barley, Winter ([18]; 125 g ai/ha): 0
- Plant response rating, Barley, Winter ([18]; 250 g ai/ha): 0
